# Measurements reported in ChEMBL document CHEMBL1140258, “Synthesis and structure-activity relationships of biarylcarboxamide bis-aminopyrrolidine urea derived small-molecule antagonists of the melanin-concentrating hormone receptor-1 (MCH-R1)” (Bioorg Med Chem Lett, 2005).
# Biological target: Melanin-concentrating hormone receptor 1 (Homo sapiens, UniProt Q99705)
# Experiment: biochemical
# Type: cell-based, HEK293
# Description: Binding affinity towards the human MCH-R1 receptor by displacing [125I]Tyr13]-MCH radioligand in HEK293 cells, Data is average of 3 or more independent measurements
# Melanin-concentrating hormone receptor 1, sequence (Q99705 whole entry): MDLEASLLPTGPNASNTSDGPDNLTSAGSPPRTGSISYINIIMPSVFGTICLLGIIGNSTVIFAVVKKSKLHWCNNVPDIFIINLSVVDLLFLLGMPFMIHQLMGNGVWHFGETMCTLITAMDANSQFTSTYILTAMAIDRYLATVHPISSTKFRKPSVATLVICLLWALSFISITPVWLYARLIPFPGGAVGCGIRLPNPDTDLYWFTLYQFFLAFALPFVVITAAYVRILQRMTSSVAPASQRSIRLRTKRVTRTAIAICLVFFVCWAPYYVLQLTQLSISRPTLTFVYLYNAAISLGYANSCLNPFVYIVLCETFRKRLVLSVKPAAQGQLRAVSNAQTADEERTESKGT
row,Ki,Compound
1,0.31 µM,Cc1cccc(C)c1-c1ccc(C(=O)N(C)[C@H]2CCN(C(=O)N(C)[C@@H]3CCN(C)C3)C2)s1
2,0.014 µM,CN1CC[C@H](N(C)C(=O)N2CC[C@H](N(C)C(=O)c3ccc(-c4ccc(C(F)(F)F)cc4)s3)C2)C1
3,0.001 µM,CCc1ccc(-c2ccc(C(=O)N(C)[C@H]3CCN(C(=O)N(C)[C@@H]4CCN(C)C4)C3)s2)cc1
4,0.002 µM,CCOc1ccc(-c2ccc(C(=O)N(C)[C@H]3CCN(C(=O)N(C)[C@@H]4CCN(C)C4)C3)s2)c(Cl)c1
5,0.007 µM,CN1CC[C@@H](N(C)C(=O)N2CC[C@H](N(C)C(=O)c3ccc(-c4ccc(N(C)C)cc4)s3)C2)C1
6,0.15 µM,CN1CC[C@@H](N(C)C(=O)N2CC[C@@H](N(C)C(=O)c3ccc(-c4ccc(C(F)(F)F)cc4)s3)C2)C1
7,0.9 µM,COc1cccc(-c2ccc(C(=O)N(C)[C@H]3CCN(C(=O)N(C)[C@@H]4CCN(C)C4)C3)s2)c1
8,0.019 µM,Cc1ccccc1-c1ccc(C(=O)N(C)[C@H]2CCN(C(=O)N(C)[C@@H]3CCN(C)C3)C2)s1
9,0.005 µM,COc1ccc(-c2ccc(C(=O)N(C)[C@H]3CCN(C(=O)N(C)[C@@H]4CCN(C)C4)C3)cc2)cc1
10,0.003 µM,Cc1cc(Cl)ccc1-c1ccc(C(=O)N(C)[C@H]2CCN(C(=O)N(C)[C@@H]3CCN(C)C3)C2)s1
11,0.002 µM,CN1CC[C@@H](N(C)C(=O)N2CC[C@H](N(C)C(=O)c3ccc(-c4ccc(C(F)(F)F)cc4)s3)C2)C1
12,0.32 µM,CN1CC[C@@H](N(C)C(=O)N2CC[C@H](N(C)C(=O)c3ccc(-c4cccc(Cl)c4)s3)C2)C1
13,1.8 µM,CN1CC[C@@H](N(C)C(=O)N2CC[C@H](N(C)C(=O)c3ccc(-c4cccc(C(F)(F)F)c4)s3)C2)C1
14,0.002 µM,CN1CC[C@@H](N(C)C(=O)N2CC[C@H](N(C)C(=O)c3ccc(-c4ccc(Cl)cc4)cc3)C2)C1
15,0.005 µM,CC(C)c1ccc(-c2ccc(C(=O)N(C)[C@H]3CCN(C(=O)N(C)[C@@H]4CCN(C)C4)C3)s2)cc1
16,2.4 µM,CN1CC[C@@H](N(C)C(=O)N2CC[C@H](N(C)C(=O)c3ccc(-c4ccc(C#N)cc4)s3)C2)C1
17,0.004 µM,COc1ccc(-c2ccc(C(=O)N(C)[C@H]3CCN(C(=O)N(C)[C@@H]4CCN(C)C4)C3)s2)cc1

row,Ki,Compound
1,0.003 µM,COc1ccc(-c2ccc(C(=O)N(C)[C@H]3CCN(C(=O)N(C)[C@@H]4CCN(C)C4)C3)s2)c(C)c1
2,0.002 µM,CN1CC[C@@H](N(C)C(=O)N2CC[C@H](N(C)C(=O)c3ccc(-c4ccc(Cl)cc4)s3)C2)C1
3,0.063 µM,CCOc1ccc(-c2ccc(C(=O)N(C)[C@H]3CCN(C(=O)N(C)[C@@H]4CCN(C)C4)C3)s2)cc1
4,0.003 µM,CN1CC[C@@H](N(C)C(=O)N2CC[C@H](N(C)C(=O)c3ccc(-c4ccc(Cl)cc4Cl)s3)C2)C1
5,0.004 µM,CN1CC[C@@H](N(C)C(=O)N2CC[C@H](N(C)C(=O)c3ccc(-c4ccc(OC(F)(F)F)cc4)s3)C2)C1
6,0.003 µM,Cc1ccc(-c2ccc(C(=O)N(C)[C@H]3CCN(C(=O)N(C)[C@@H]4CCN(C)C4)C3)s2)cc1
7,0.19 µM,CN1CC[C@H](N(C)C(=O)N2CC[C@@H](N(C)C(=O)c3ccc(-c4ccc(C(F)(F)F)cc4)s3)C2)C1
8,3.4 µM,COc1ccccc1-c1ccc(C(=O)N(C)[C@H]2CCN(C(=O)N(C)[C@@H]3CCN(C)C3)C2)s1
9,6 µM,CN1CC[C@@H](N(C)C(=O)N2CC[C@H](N(C)C(=O)c3ccc(-c4ccc(S(C)(=O)=O)cc4)s3)C2)C1
10,0.061 µM,CN1CC[C@@H](N(C)C(=O)N2CC[C@H](N(C)C(=O)c3ccc(-c4ccccc4C(F)(F)F)s3)C2)C1
11,0.037 µM,CN1CC[C@@H](N(C)C(=O)N2CC[C@H](N(C)C(=O)c3ccc(-c4ccc(F)cc4)s3)C2)C1
12,0.016 µM,COc1ccc(-c2ccc(C(=O)N(C)[C@H]3CCN(C(=O)N(C)[C@@H]4CCN(C)C4)C3)cc2)c(C)c1
13,0.01 µM,CN1CC[C@@H](N(C)C(=O)N2CC[C@H](N(C)C(=O)c3ccc(-c4ccccc4Cl)s3)C2)C1
14,0.003 µM,Cc1ccc(-c2ccc(C(=O)N(C)[C@H]3CCN(C(=O)N(C)[C@@H]4CCN(C)C4)C3)s2)c(C)c1
15,> 10 µM,CN1CC[C@@H](N(C)C(=O)N2CC[C@H](N(C)C(=O)c3ccc(-c4ccc(O)cc4)s3)C2)C1
16,0.001 µM,Cc1ccc(-c2ccc(C(=O)N(C)[C@H]3CCN(C(=O)N(C)[C@@H]4CCN(C)C4)C3)s2)c(Cl)c1
17,3.3 µM,CC(C)Oc1ccc(-c2ccc(C(=O)N(C)[C@H]3CCN(C(=O)N(C)[C@@H]4CCN(C)C4)C3)s2)cc1
